In the NIST ThermoML archive (doi:10.1016/j.jct.2016.12.029):

Test: xn = mol fraction of the nth substance listed
Conditions: Gas, Buoyancy - hydrostatic balance with magnetic suspension - one sinker

C=C(F)C(F)(F)F [2,3,3,3-tetrafluoro-1-propene] + CCC
Conditions | mass density [kg/m3]
285.37 K, 311 kPa, x1 = 0.8116 | 14.287
285.38 K, 402.5 kPa, x1 = 0.0906 | 9.29
285.38 K, 413.6 kPa, x1 = 0.8116 | 19.58
285.39 K, 494.1 kPa, x1 = 0.0906 | 11.653
290.25 K, 583.7 kPa, x1 = 0.583 | 23.524
290.38 K, 102.2 kPa, x1 = 1 | 4.937
290.39 K, 184.5 kPa, x1 = 1 | 9.113
290.4 K, 203.9 kPa, x1 = 0.583 | 7.494
290.4 K, 308.8 kPa, x1 = 1 | 15.792
290.4 K, 421.2 kPa, x1 = 1 | 22.298
290.41 K, 103.5 kPa, x1 = 0.583 | 3.727
290.41 K, 300.6 kPa, x1 = 0.583 | 11.287
290.41 K, 403.8 kPa, x1 = 0.583 | 15.532
290.41 K, 496.6 kPa, x1 = 0.583 | 19.555
290.42 K, 102.2 kPa, x1 = 0.2546 | 2.673
290.42 K, 202.4 kPa, x1 = 0.2546 | 5.395
290.42 K, 297.9 kPa, x1 = 0.2546 | 8.09
290.42 K, 393.4 kPa, x1 = 0.2546 | 10.9
290.43 K, 490.8 kPa, x1 = 0.2546 | 13.893
290.44 K, 106.8 kPa, x1 = 0.8116 | 4.568
290.44 K, 199.7 kPa, x1 = 0.8116 | 8.728
290.44 K, 298.5 kPa, x1 = 0.8116 | 13.363
290.44 K, 586.4 kPa, x1 = 0.2546 | 16.977
290.46 K, 104.6 kPa, x1 = 0.0906 | 2.225
290.46 K, 208.6 kPa, x1 = 0.0906 | 4.52
290.46 K, 314.2 kPa, x1 = 0.0906 | 6.95
290.46 K, 380.2 kPa, x1 = 0.8116 | 17.392
290.46 K, 409.5 kPa, x1 = 0.0906 | 9.237
290.46 K, 465.4 kPa, x1 = 0.8116 | 21.81
290.46 K, 539.6 kPa, x1 = 0.0906 | 12.53
295.4 K, 101.7 kPa, x1 = 1 | 4.829
295.4 K, 196.9 kPa, x1 = 1 | 9.565
295.4 K, 400.6 kPa, x1 = 1 | 20.565
295.4 K, 600.7 kPa, x1 = 1 | 32.885
295.41 K, 305.3 kPa, x1 = 1 | 15.255
295.41 K, 510.2 kPa, x1 = 1 | 27.092
295.43 K, 213.4 kPa, x1 = 0.2546 | 5.607
295.44 K, 312 kPa, x1 = 0.2546 | 8.352
295.44 K, 420 kPa, x1 = 0.2546 | 11.485
295.44 K, 526.9 kPa, x1 = 0.2546 | 14.734
295.45 K, 511.2 kPa, x1 = 0.583 | 19.692
295.45 K, 638.2 kPa, x1 = 0.2546 | 18.298
295.46 K, 105.6 kPa, x1 = 0.583 | 3.727
295.46 K, 202.1 kPa, x1 = 0.583 | 7.273
295.46 K, 304.8 kPa, x1 = 0.583 | 11.205
295.46 K, 309.4 kPa, x1 = 0.0906 | 6.711
295.46 K, 410.8 kPa, x1 = 0.583 | 15.457
295.46 K, 411.3 kPa, x1 = 0.0906 | 9.102
295.47 K, 104.2 kPa, x1 = 0.0906 | 2.174
295.47 K, 209.6 kPa, x1 = 0.0906 | 4.463
295.47 K, 517.9 kPa, x1 = 0.0906 | 11.713
295.47 K, 624.6 kPa, x1 = 0.583 | 24.759
295.48 K, 105.6 kPa, x1 = 0.8116 | 4.43
295.48 K, 198.1 kPa, x1 = 0.8116 | 8.481
295.48 K, 304 kPa, x1 = 0.8116 | 13.338
295.48 K, 403.2 kPa, x1 = 0.8116 | 18.133
295.48 K, 629.5 kPa, x1 = 0.0906 | 14.594
295.5 K, 514.3 kPa, x1 = 0.8116 | 23.825
300.2 K, 668.8 kPa, x1 = 1 | 36.434
300.21 K, 108 kPa, x1 = 1 | 5.039
300.21 K, 218.9 kPa, x1 = 1 | 10.489
300.21 K, 324 kPa, x1 = 1 | 15.933
300.21 K, 439.4 kPa, x1 = 1 | 22.291
300.21 K, 545.8 kPa, x1 = 1 | 28.564
300.21 K, 702.5 kPa, x1 = 0.0906 | 16.204
300.23 K, 569.7 kPa, x1 = 0.8116 | 26.154
300.24 K, 599.9 kPa, x1 = 0.0906 | 13.531
300.24 K, 701 kPa, x1 = 0.583 | 27.648
300.25 K, 190.5 kPa, x1 = 0.0906 | 3.98
300.25 K, 392.5 kPa, x1 = 0.8116 | 17.228
300.25 K, 396.6 kPa, x1 = 0.0906 | 8.595
300.25 K, 489.8 kPa, x1 = 0.8116 | 22.015
300.25 K, 506.5 kPa, x1 = 0.0906 | 11.208
300.25 K, 600.3 kPa, x1 = 0.583 | 23.086
300.26 K, 102.6 kPa, x1 = 0.583 | 3.557
300.26 K, 104.5 kPa, x1 = 0.0906 | 2.152
300.26 K, 106.3 kPa, x1 = 0.8116 | 4.378
300.26 K, 200.3 kPa, x1 = 0.583 | 7.077
300.26 K, 298.9 kPa, x1 = 0.583 | 10.761
300.26 K, 300 kPa, x1 = 0.0906 | 6.389
300.26 K, 301.1 kPa, x1 = 0.8116 | 12.94
300.26 K, 506.5 kPa, x1 = 0.583 | 19.062
300.27 K, 198.3 kPa, x1 = 0.8116 | 8.334
300.27 K, 400.3 kPa, x1 = 0.583 | 14.716
